For data set [1] the following is noted: cited from earlier work.
The nature of data set [2]: Solubility comparison: saturated solution in water, absorbance at 210 nm. It is filed as physicochemical. The settings on record: room temperature. The procedure:
Solubility studies of different aprepitant powders were conducted. Sufficient aprepitant having either crystalline Form I or II, or in the form of an amorphous povidone coprecipitate, was added to a 25 ml test tube containing 10 ml of water at room temperature to get a saturated solution. The solutions were filtered and filtrate was used to obtain the absorbance at 210 nm. Absorbance was compared to standards prepared by dissolving aprepitant in methanol, then diluting aliquots with water.

The structures appear in SMILES notation. In brackets after ≈: the same amount, converted by molar mass. Read-outs that look alike come from different tables or passages of the source.

Take `C[C@@H](O[C@H]1OCCN(Cc2n[nH]c(=O)[nH]2)[C@H]1c1ccc(F)cc1)c1cc(C(F)(F)F)cc(C(F)(F)F)c1` [Aprepitant, 5-[[(2R,3S)-2-[(1R)-1-[3,5-bis(trifluoromethyl)phenyl]ethoxy]-3-(4-fluorophenyl)-4-morpholinyl]methyl]-1,2-dihydro-3H-1,2,4-triazol-3-one]: the Solubility in acetonitrile result in data set [1] (acetonitrile) is on record as “slightly soluble”. In addition, the Solubility in ethanol result in data set [1] (ethanol) is “sparingly soluble”. Moreover, the “Solubility in isopropyl acetate” value in data set [1] (isopropyl acetate) was “sparingly soluble”. In addition, in data set [1] (water), the Solubility in water entry is “practically insoluble”.

In data set [2], `C[C@@H](O[C@H]1OCCN(Cc2n[nH]c(=O)[nH]2)[C@H]1c1ccc(F)cc1)c1cc(C(F)(F)F)cc(C(F)(F)F)c1` [crystalline Form I, 5-[[(2R,3S)-2-[(1R)-1-[3,5-bis(trifluoromethyl)phenyl]ethoxy]-3-(4-fluorophenyl)-4-morpholinyl]methyl]-1,2-dihydro-3H-1,2,4-triazol-3-one] gave a Solubility in water of 20 µg/mL (≈ 37.4 µM).

Compound `C[C@@H](O[C@H]1OCCN(Cc2n[nH]c(=O)[nH]2)[C@H]1c1ccc(F)cc1)c1cc(C(F)(F)F)cc(C(F)(F)F)c1` [crystalline Form II, 5-[[(2R,3S)-2-[(1R)-1-[3,5-bis(trifluoromethyl)phenyl]ethoxy]-3-(4-fluorophenyl)-4-morpholinyl]methyl]-1,2-dihydro-3H-1,2,4-triazol-3-one] came in with a Solubility in water in data set [2] of 140 µg/mL (≈ 262 µM).

The values above are taken from patent US20080214535A1, “Amorphous Aprepitant Coprecipitates” (DR. REDDY'S LABORATORIES LTD., priority 2005, published 2008).
